Experimental data taken from patent US20020012630A1, “Methods for testing compounds useful in treating diabetic complications” (priority 2000, published 2002).
Where no end group is shown, it is not given here.

Key:
[1] = system: experimental wounds of streptozotocin-induced diabetic rats; assay: Wound healing in experimental wounds of streptozotocin-induced diabetic rats; type: in vivo, rat; details: 6-week streptozotocin-induced diabetic rats treated with 20 mg/kg, compared with normal untreated rats; FIGS. 5, 6A-6B
Protocol: The blood glucose levels of streptozotocin-induced diabetic rats was maintained at between 300-350 mg/dL with subcutaneous injection of insulin. Experimental wounds, having a diameter of […] and including the panniculus carnosus muscle, were made on the backs of diabetic rats. Wounds were serially photographed with a digital camera at the time of wounding, and then again every three days after wound induction until the time of closure, and the area of the wound measured (and expressed as cm^2). Wound closure was defined as complete epithelialization. The degree of wound contraction is calculated as: {(size of wound at day 0−size of wound at day X)/size of wound at day 0)}×100. Diabetic rats were administered 20 mg/kg of the aldose reductase inhibitor 3(4,5,7-triflurobenzothiazol-2-yl)methyl-indole-N-acetic acid at either the time of diabetes induction (simulating treatment prior to diabetic complications) or 6 weeks after diabetes induction (simulating treatment at the time of diabetic complications).

[2] = system: full-thickness skin wounds of db/db mice; details: three doses on days 0, 1 and 2 under Tegederm wound dressing, dose of 10-1000 nM; cited from earlier work

Compound	wound healing rate (wound size and wound contraction) [1]	time of healing [2]
O=C(O)Cn1cc(Cc2nc3c(F)c(F)cc(F)c3s2)c2ccccc21 [3-(4,5,7-triflurobenzothiazol-2-yl)methyl-indole-N-acetic acid]	healed at the same rate as the wounds in normal rats	–
Substance P (RPKPQQFFGLM-NH2; ends and bridges not checked; UniProt P20366 58-68, looked up) [SP]	–	improved time of healing
